Measured values published in patent US20090325202A1, “Methods for Developing and Assessing Therapeutic Agents” (priority 2006, published 2009).
Several values for one entry are separate records, joined by “and”; a condition that tells them apart may be missing. Identical values can stand only once. Entries after “also recorded” stand apart in the source; their conditions may differ.

Key:
[1] = test system: ERK1/2; assay: HuCCT-1 xenograft tumor FNAB Western blot, ERK1/2 activity; format: in vivo, human
Method: (§1) Four to 6-week-old female athymic (nu+/nu+) mice were purchased from Harlan (Harlan Laboratories, Washington, D.C.). The research protocol was approved by the Johns Hopkins University Animal Care Committee and animals were maintained in accordance with the guidelines of the American Association of Laboratory Animal Care. […] Mice were monitored daily for signs of toxicity and were weighed three times per week. Tumor size was evaluated three times per week by caliper measurements using the following formula: tumor volume=[length×width^2]/2. Tumor growth inhibition was calculated by tumor volume of treated mice divided by tumor volume of control mice. Experiments were terminated on day 14.
Fine needle aspirates were obtained with a 25G needle and 10 ml syringe, passing the needle through the tumor 10 times with application of 1-2 ml suction The aspirated material was expressed onto clear glass slides and smeared. All smears were allowed to air dry and then stained with Diff-Quik stain (Baxter Healthcare, Miami, Fla.). Five to ten AD/DQ-stained cytological smears were prepared from each tumor sample. The cellular composition of each aspirate was assessed by cytopathologists.
(§2) Total cell lysates were obtained from either cells cultured in vitro or from tumor FNAB samples. […] Immunoreactive proteins were visualized by enhanced chemiluminescence (Amersham International, United Kingdom). Total and phospho-ERK1/2 proteins were quantified by sandwich [LISA kits (BioSource International, Camarillo, Calif., USA) as described in the manufacturer's protocols. The reaction was read at 450 nm in an ELISA plate reader.
Next, whether FNAB samples obtained from tumor tissue at the early stage of therapy can be used to predict tumor response was examined. […] Expression and phosphorylation levels of ERK 1/2 were analyzed on Western blot by using extracts prepared from AD/DQ-stained FNAB samples.

[2] = test system: ERK1/2; assay: HuCCT-1 xenograft tumor FNAB phospho-/total ERK1/2 ELISA; format: in vivo, human
Method: as §1, §2
Western blot analysis of protein samples is a conventional method for phosphoprotein analysis, but is limited in throughput, quantitative precision and requires large sample amounts. ELISA assays offer alternatives to Western blot with higher throughput and increased sensitivity. […] For this purpose the tumor FNAB samples, which have been analyzed on Western blot above (FIG. 16A), were used to assess the expression and phosphorylation of ERK1/2 proteins by the total and phospho-specific ERK1/2 ELISA assays, respectively.
The amounts of phosphorylated ERK1/2 were normalized for the total contents of these proteins in each sample group and therapy-mediated changes in their phosphorylation status were quantified.

[3] = test system: HuCCT-1 tumors; assay: HuCCT-1 xenograft tumor growth; format: in vivo, athymic (nu+/nu+) mice; conditions: single agents: gefitinib 150 mg/Kg i.p. days 1-5 and 8-12, CI-1040 150 mg/Kg twice a day oral days 1-14
Method: as §1
To explore the feasibility of implementing this method in in vivo studies, mouse xenografts were next employed to test whether FNAB material obtained from tumor tissue can be utilized to monitor and predict therapy response in vivo. For this purpose HuCCT-1 cholangiocarcinoma cells were used to create a xenograft mouse model of human cholangiocarcinoma. […] Tumor volumes were measured and compared with tumors from animals that received drug vehicle alone.

[4] = test system: ERK1/2; assay: Phospho-/total ERK1/2 ELISA in EGF-stimulated T-47D cell smears; format: cell-based, human; conditions: T-47D cells, AG1478 0.5 uM, PD98059 20 uM
Method: T47D cells were maintained in Dulbecco's modified Eagle's medium (Life Technologies, Inc.) supplemented with 10% fetal calf serum and antibiotics (Life Technologies, Inc.). Prior to EGF (Sigma) stimulation, cells were starved for 24 h in serum-free medium.
Total cell lysates were obtained from either cells cultured in vitro or from tumor FNAB samples. Protein extracts were resolved by 4-15% SDS-PAGE and probed with Rabbit anti-EGFR, anti-phospbo-EGFR, anti-ERK1 and anti-phospho-ERK antibodies obtained from New England Biolabs (Beverly, Mass.). Immunoreactive proteins were visualized by enhanced chemiluminescence (Amersham International, United Kingdom). Total and phospho-ERK1/2 proteins were quantified by sandwich [LISA kits (BioSource International, Camarillo, Calif., USA) as described in the manufacturer's protocols. The reaction was read at 450 nm in an ELISA plate reader.
Western blot analysis of protein samples is a conventional method for phosphoprotein analysis. However, Western blot analysis is limited in throughput and quantitative precision, and also requires large sample amounts. […] Therefore, it was tested if quantitative ELISA assays can be applied to cytologic samples to increase the assay sensitivity to measure the expression levels and activation status of specific signaling pathways. […]

[5] = test system: ERK1/2; assay: Ex vivo FNAB drug sensitivity assay, ERK1/2 phosphorylation by Western blot; format: cell-based, human
Method: Tumor cells were collected by FNAB from the xenograft animals before the start of treatment using a sterile 25G short needle. Tumor samples were immediately transferred into 10 ml sterile prewarmed complete RPMI-1640 culture medium containing 10% FBS, penicillin (200 μg/ml), and streptomycin (200 μg/ml). Cells were incubated with 0.04% trypan blue (Sigma) dissolved in PBS (9.1 mM Na2HPO4, 1.7 mM NaH2PO4, and 150 mM NaCl, pH 7.4). The viable (membrane-intact) and dead cells were then counted using Neubauer hemocytometer and the total viable cell count was used to calculate final working volumes. Approximately 25,000 viable tumor cells were seeded into each well of a 6-well polypropylene microplate. Cells were treated in duplicates with vehicle (control), erlotinib (5 μM) or temsirolimus (1 μM) in a humidified 5% CO2 incubator at 37° C. for 6 hours. No fibroblast and endothelial cell growth was observed. Following treatment, non-adherent and adherent cells (only a few, collected by scraping) were pooled together and centrifuged at 500×g for 5 min at 4° C. After washing with PBS, cells were lysed in 100 μL of ice-cold lysis buffer (50 mM Tris-HCl, 0.25M NaCl, 0.1% (v/v) Triton X-100, 1 mM EDTA, 50 mM NaF, and 0.1 mM Na3VO4, pH 7.4) containing protease and phosphatase inhibitors (Roche Molecular Biochemicals) and analyzed by Western blot.
Protein concentrations obtained from FNAB samples were quantified before each experiment. Protein extracts (15 μg) were electrophoresed on a 10% (w/v) SDS-polyacrylamide gel. After electrotransfer to Immobilon-P membranes (Millipore), membranes were blocked at room temperature using SuperBlock (Pierce) for one hour. The primary antibodies were diluted at 1:1000 in 1:10 dilution of SuperBlock solution and the membranes were incubated with primary antibodies overnight at 4° C. The antibodies tested were phospho-ERK1/2 (Cell signal #9101), phospho-S6 Ribosomal Protein (Cell Signaling Technology, Beverly, Mass.) and total ERK1/2 (Cell Signaling Technology, Beverly, Mass.) and total S6 Ribosomal Protein (Cell Signaling Technology, Beverly, Mass.). The next day, the membranes were washed and incubated for 1 h at room temperature with horseradish peroxidase (HRP)-conjugated secondary antibodies, rabbit IgG-HRP (Santa Cruz Biotechnology), or mouse IgG-HRP (Santa Cruz Biotechnology) at a final dilution of 1:3000. Antibody binding was visualized using enhanced chemiluminescence (SuperSignal West Pico, Pierce) and autoradiography.
To test if tumor cells obtained by FNAB can be used in the ex vivo assays to predict tumor response in vivo, 25,000 viable cancer cells, as determined by trypan blue dye exclusion, were treated with erlotinib or temsirolimus for six hours, after which signal pathway inhibition was analyzed by Western blot. Under these cell culture conditions no fibroblast and endothelial cell growth was detected (data not shown).
To determine whether standard clinical FNAB specimens provide adequately cellular tumor samples to perform ex vivo prediction assays, adenocarcinoma cells were collected by ultrasound or computer tomography-guided FNAB technique from pancreatic cancer patients during routine diagnostic procedures. Tumor cells were isolated by centrifugation from the needle rinse suspensions and treated with vehicle (control), erlotinib, or temsirolimus ex vivo for six hours.

[6] = test system: primary human pancreatic cancer xenograft tumors; assay: Tumor growth (RTG) in xenograft mouse models of primary human pancreatic cancer; format: in vivo, athymic (nu+/nu+) mice
From the text: Four-week-old female athymic (nu+/nu+) mice were purchased from Harlan (Harlan Laboratories, Washington, D.C.). The research protocol was approved by the Johns Hopkins University Animal Care and Use Committee and animals were maintained in accordance to guidelines of the American Association of Laboratory Animal Care. Briefly, frozen pancreatic xenografts in first passage in mice, after being obtained from surgical specimens of patients undergoing pancreatic resection for adenocarcinoma at the Johns Hopkins Hospital were re-implanted subcutaneously in groups of 5 mice for each patient, with 2 small pieces per mouse (F2 generation). Tumors were allowed to grow to a size of 1.5 cm at which point they were harvested, divided into small ˜3×3×3 mm pieces, and transplanted to another 18-22 mice, with two tumors per mouse. Tumors from this second mouse-to-mouse passage were allowed to grow until reaching −200 mm^3, at which time mice were randomized in the following three treatment groups, with 6 mice in each group: control (vehicle), erlotinib (50 mg/kg/day i.p.), and temsirolimus (20 mg/kg days 1-5 i.p.). Mice were monitored daily for signs of toxicity and were weighed three times per week. Tumor size was evaluated three times per week by caliper measurements using the following formula: tumor volume=[length×width^2]/2 as previously reported (19). Relative tumor growth (RTG) was calculated by tumor growth of treated mice divided by tumor growth of control mice (T/C)×100. Experiments were terminated on day 28. Tumor response was defined as sensitive, when RTG was less than 50% on day 28.

## O=C(NOCC1CC1)c1ccc(F)c(F)c1Nc1ccc(I)cc1Cl [CI-1040]
[1]; HuCCT-1 tumor FNAB samples of treated mice, gefitinib, CI-1040 alone or combined
  ERK1/2 activity (phospho-ERK1/2 immunoblot): only a slight inhibition in ERK1/2 activity
[1]; combination: as early as 6 h after first administration, sustained for two weeks, single agents: 6 h or 5 d
  ERK1/2 activity, serial FNAB sampling: neither of these agents alone caused inhibition
[2]; HuCCT-1 tumor FNAB samples of treated animals
  phosphorylation levels of ERK1/2 by phospho-ERK1/2 ELISA (raw data): neither gefitinib nor CI-1040 treatment alone caused any significant change
[2]; HuCCT-1 tumor FNAB, CI-1040 alone
  decrease of ERK1/2 phosphorylation (normalized for total ERK1/2): 19%
[3]
  decrease in tumor volume: 11%

## COc1cccc(-c2cc(=O)c3ccccc3o2)c1N [PD98059]
[4]
  inhibition of EGF-induced ERK1/2 phosphorylation (phospho-ELISA normalized for total ERK1/2): 50% and 60%

## C#Cc1cccc(Nc2ncnc3cc(OCCOC)c(OCCOC)cc23)c1 [erlotinib]
[5]; all resistant tumors of the xenograft panel, erlotinib 5 μM, 6 hours
  ERK1/2 activation ex vivo: failed to inhibit ERK1/2 activation
[5]; cancer cells from pancreatic cancer patient 1, six hours
  ERK1/2 phosphorylation ex vivo: dramatically blocked ERK1/2 phosphorylation
[5]; cells from resistant tumor A265, erlotinib 5 μM, 6 hours
  phosphorylation of ERK1/2 ex vivo: failed to inhibit ERK1/2 phosphorylation
[5]; cells from tumor A198, erlotinib 5 μM, 6 hours
  phosphorylation of ERK1/2 ex vivo: dramatic inhibition; also recorded: did show inhibition of ERK1/2; also recorded: inhibited ERK1/2 activation
[5]; tumor cells of pancreatic cancer patient 2 and 3, six hours
  ERK1/2 activity ex vivo: did not effectively block ERK1/2 activity
[6]; remaining seven tumors (all but A198), erlotinib 50 mg/kg/day i.p., day 28
  RTG: greater than 50%
[6]; tumor A198
  tumor response: sensitive (Tumor response was defined as sensitive, when RTG was less than 50% on day 28)
[6]; tumor A265
  tumor response: resistant (greater than 50% RTG and were defined as resistant)
